Measurements as given in ChEMBL document CHEMBL4715817, “Python Cathelicidin CATHPb1 Protects against Multidrug-Resistant Staphylococcal Infections by Antimicrobial-Immunomodulatory Duality” (J Med Chem, 2018).
Converted amounts (≈) assume the structure as drawn. The source made the active and inactive calls. No cut-off for these calls is given here. Peptide text beside a SMILES is read from it.

Legend:
[1] = system: Mus musculus; test: Immunomodulatory activity in mouse assessed as increase number of neutrophil in peritoneal cavity at 10 mg/kg, ip measured after 5 to 24 hrs by flow cytometry; assay type: functional, organism-based; details: time 5-24 hrs
[2] = system: Pseudomonas aeruginosa; test: Antimicrobial activity against Pseudomonas aeruginosa ATCC 27853 incubated for 16 to 18 hrs by fluorescence microplate reader analysis; assay type: functional; details: time 16-18 hrs
[3] = system: Bacillus cereus; test: Antimicrobial activity against Bacillus cereus incubated for 16 to 18 hrs by fluorescence microplate reader analysis; assay type: functional; details: time 16-18 hrs
[4] = system: Stenotrophomonas maltophilia; test: Antimicrobial activity against Stenotrophomonas maltophilia IS 090223 incubated for 16 to 18 hrs by fluorescence microplate reader analysis; assay type: functional; details: time 16-18 hrs
[5] = system: Mus musculus; test: Immunomodulatory activity in Kunming mouse infected with vancomycin-resistant Staphylococcus aureus assessed as increased in IL-10 level in peritoneal lavage at 10 mg/kg, ip administered 4 hrs after infection by ELISA; assay type: functional, organism-based
[6] = system: Macrophage; test: Immunomodulatory activity in mouse peritoneal macrophage assessed as inhibition of LPS-induced TNF-alpha level measured after 6 hrs by qRT-PCR analysis; assay type: functional, tissue-based; details: dose 5-20 µg/ml
[7] = biological target: Mitogen-activated protein kinase 8/9 (Homo sapiens) (UniProt P45983+P45984); test: Inhibition of LPS-induced phosphorylation of Jnk1/2 in mouse peritoneal macrophage at 20 ug/ml pretreated for 1 hr followed by LPS stimulation measured after 30 mins by Western blot analysis relative to control; assay type: tissue-based; details: dose 20.0 µg/ml, time 1.5 hrs
Chain of Mitogen-activated protein kinase 8/9 (Homo sapiens) (P45983 whole entry, looked up): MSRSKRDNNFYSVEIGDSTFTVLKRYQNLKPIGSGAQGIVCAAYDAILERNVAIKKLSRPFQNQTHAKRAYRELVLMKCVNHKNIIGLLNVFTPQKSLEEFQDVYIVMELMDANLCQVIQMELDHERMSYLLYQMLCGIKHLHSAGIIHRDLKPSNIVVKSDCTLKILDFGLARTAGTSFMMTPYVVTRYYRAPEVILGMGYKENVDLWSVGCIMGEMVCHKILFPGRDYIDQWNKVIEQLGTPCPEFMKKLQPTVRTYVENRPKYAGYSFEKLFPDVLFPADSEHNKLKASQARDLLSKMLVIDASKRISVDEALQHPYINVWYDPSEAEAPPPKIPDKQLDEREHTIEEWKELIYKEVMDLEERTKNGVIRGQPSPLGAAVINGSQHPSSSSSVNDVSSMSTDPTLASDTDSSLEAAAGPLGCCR
Chain of Mitogen-activated protein kinase 8/9 (Homo sapiens) (P45984 whole entry, looked up): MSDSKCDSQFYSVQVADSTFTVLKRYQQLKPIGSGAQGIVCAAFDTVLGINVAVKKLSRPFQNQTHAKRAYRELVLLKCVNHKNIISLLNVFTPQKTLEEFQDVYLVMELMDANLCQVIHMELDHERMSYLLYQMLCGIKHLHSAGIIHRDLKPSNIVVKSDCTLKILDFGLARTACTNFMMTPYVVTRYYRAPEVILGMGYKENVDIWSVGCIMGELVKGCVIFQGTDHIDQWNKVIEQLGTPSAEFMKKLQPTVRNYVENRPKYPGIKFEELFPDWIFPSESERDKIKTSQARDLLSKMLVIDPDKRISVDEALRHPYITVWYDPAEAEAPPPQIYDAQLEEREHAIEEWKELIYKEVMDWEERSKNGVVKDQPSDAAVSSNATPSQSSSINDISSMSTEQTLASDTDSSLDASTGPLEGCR

[8] = system: Macrophage; test: Immunomodulatory activity in mouse peritoneal macrophage assessed as inhibition of LPS-induced MCP-1 level measured after 6 hrs by qRT-PCR analysis; assay type: functional, tissue-based; details: dose 5-20 µg/ml
[9] = Induction of neutrophil extracellular trap formation in neutrophil (unknown origin) at 40 ug/ml measured after 3 hrs by fluorescence analysis; assay type: functional; details: dose 40 µg/ml
[10] = system: Mus musculus; test: Immunomodulatory activity in mouse assessed as increase number of inflammatory monocytes in peritoneal cavity at 10 mg/kg, ip measured after 5 to 24 hrs by flow cytometry; assay type: functional, organism-based; details: time 5-24 hrs
[11] = system: Mus musculus; test: Immunomodulatory activity in Kunming mouse infected with vancomycin-resistant Staphylococcus aureus assessed as effect number of neutrophil in peritoneal cavity at 10 mg/kg, ip measured upto 24 hrs by flow cytometry; assay type: functional, organism-based; details: time hrs <=24
[12] = system: Staphylococcus aureus; test: Antibacterial activity against vancomycin-resistant Staphylococcus aureus assessed as bacterial growth inhibition in presence of 80% human serum incubated upto 8 hrs; assay type: functional; details: time hrs <=8
[13] = system: Macrophage; test: Induction of ROS production in mouse peritoneal macrophage by fluorescence assay; assay type: functional, tissue-based; details: dose 10-40 µg/ml
[14] = Toxicity in Kunming mouse assessed as effect on IL-1beta levels at 10 mg/kg, ip measured after 5 hrs by ELISA; assay type: organism-based; details: in vivo
[15] = system: Neutrophil; test: Immunomodulatory activity in neutrophils (unknown origin) assessed as inhibition of LPS-induced TNF-alpha level at 5 to 20 ug/ml by ELISA; assay type: functional, cell-based; details: dose 5-20 µg/ml
[16] = Toxicity in Kunming mouse assessed as effect on MIP-2 levels at 10 mg/kg, ip measured after 5 hrs by ELISA; assay type: organism-based; details: in vivo
[17] = system: Mus musculus; test: Immunomodulatory activity in Kunming mouse infected with vancomycin-resistant Staphylococcus aureus assessed as increased in MCP-1 level in peritoneal lavage at 10 mg/kg, ip administered 4 hrs after infection by ELISA; assay type: functional, organism-based
[18] = system: Escherichia coli; test: Antimicrobial activity against Escherichia coli IS 08040726 incubated for 16 to 18 hrs by fluorescence microplate reader analysis; assay type: functional; details: time 16-18 hrs
[19] = Toxicity in Kunming mouse assessed as effect on CXCL1/KC levels at 10 mg/kg, ip measured after 5 hrs by ELISA; assay type: organism-based; details: in vivo
[20] = system: Neutrophil; test: Immunomodulatory activity in neutrophils (unknown origin) assessed as increase in MCP-1 level at 20 ug/ml measured after 12 hrs by ELISA; assay type: functional, cell-based; details: dose 20.0 µg/ml
[21] = system: Staphylococcus aureus; test: Antimicrobial activity against vancomycin resistant Staphylococcus aureus IS 08032810, incubated for 16 to 18 hrs by fluorescence microplate reader analysis; assay type: functional; details: time 16-18 hrs
[22] = system: Enterococcus faecium; test: Antimicrobial activity against Enterococcus faecium IS 1299 incubated for 16 to 18 hrs by fluorescence microplate reader analysis; assay type: functional; details: time 16-18 hrs
[23] = biological target: Mitogen-activated protein kinase 1 and 3 (ERK2 and ERK1) (Mus musculus) (UniProt P63085+Q63844); test: Inhibition of LPS-induced phosphorylation of Erk1/2 in mouse peritoneal macrophage at 20 ug/ml pretreated for 1 hr followed by LPS stimulation measured after 30 mins by Western blot analysis relative to control; assay type: tissue-based; details: dose 20.0 µg/ml, time 1.5 hrs
Chain of Mitogen-activated protein kinase 1 and 3 (ERK2 and ERK1) (Mus musculus) (P63085 whole entry, looked up): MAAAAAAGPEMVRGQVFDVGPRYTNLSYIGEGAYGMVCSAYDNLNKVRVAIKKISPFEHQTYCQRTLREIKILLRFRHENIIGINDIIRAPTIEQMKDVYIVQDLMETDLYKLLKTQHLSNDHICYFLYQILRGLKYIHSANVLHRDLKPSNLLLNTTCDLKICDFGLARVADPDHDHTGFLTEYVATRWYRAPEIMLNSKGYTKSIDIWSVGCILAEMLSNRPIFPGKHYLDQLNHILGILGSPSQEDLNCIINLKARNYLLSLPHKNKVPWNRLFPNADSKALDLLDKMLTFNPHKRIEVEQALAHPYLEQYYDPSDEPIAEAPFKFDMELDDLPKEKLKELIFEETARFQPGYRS
Chain of Mitogen-activated protein kinase 1 and 3 (ERK2 and ERK1) (Mus musculus) (Q63844 whole entry, looked up): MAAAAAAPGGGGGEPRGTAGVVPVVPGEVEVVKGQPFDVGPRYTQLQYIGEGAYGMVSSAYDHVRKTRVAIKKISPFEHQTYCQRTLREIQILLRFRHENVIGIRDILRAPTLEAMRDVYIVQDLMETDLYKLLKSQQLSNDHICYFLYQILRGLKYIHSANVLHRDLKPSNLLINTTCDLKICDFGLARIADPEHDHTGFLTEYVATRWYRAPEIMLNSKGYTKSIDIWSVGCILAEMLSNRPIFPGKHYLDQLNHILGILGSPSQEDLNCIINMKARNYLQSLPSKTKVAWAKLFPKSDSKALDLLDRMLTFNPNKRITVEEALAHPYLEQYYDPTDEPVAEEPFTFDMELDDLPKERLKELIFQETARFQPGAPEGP

[24] = system: Staphylococcus aureus; test: Antimicrobial activity against methicillin sensitive Staphylococcus aureus ATCC 25923 incubated for 16 to 18 hrs by fluorescence microplate reader analysis; assay type: functional; details: time 16-18 hrs
[25] = system: Staphylococcus aureus; test: In vivo antibacterial activity against vancomycin resistant Staphylococcus aureus infected in ip dosed kunming mouse assessed as increase in survival rate administered 4 hrs after infection and measured up to 7 days after infection; assay type: functional, organism-based; details: dose 5-20 mg/kg, time day <=7
[26] = system: Candida albicans; test: Antimicrobial activity against Candida albicans IS 08030102 incubated for 16 to 18 hrs by fluorescence microplate reader analysis; assay type: functional; details: time 16-18 hrs
[27] = system: Nakaseomyces glabratus; test: Antimicrobial activity against Candida glabrata IS 08A802 incubated for 16 to 18 hrs by fluorescence microplate reader analysis; assay type: functional; details: time 16-18 hrs
[28] = system: Staphylococcus aureus; test: Antibacterial activity against vancomycin-resistant Staphylococcus aureus assessed as neutrophil-induced bacterial cell killing neutrophils pretreated with compound at 10 to 40 ug/ml; assay type: functional, organism-based; details: dose 10-40 µg/ml, time 15-60 min, TDE = time-dependent effect
[29] = system: Neutrophil; test: Induction of ROS production in neutrophil (unknown origin) by fluorescence assay; assay type: functional, cell-based; details: dose 10-40 µg/ml
[30] = system: Nocardia asteroides; test: Antimicrobial activity against Nocardia asteroids incubated for 16 to 18 hrs by fluorescence microplate reader analysis; assay type: functional; details: time 16-18 hrs
[31] = system: Macrophage; test: Immunomodulatory activity in mouse peritoneal macrophage assessed as inhibition of LPS-induced TNF-alpha level measured after 24 hrs by ELISA; assay type: functional, tissue-based; details: dose 5-20 µg/ml
[32] = system: Mus musculus; test: Immunomodulatory activity in Kunming mouse infected with vancomycin-resistant Staphylococcus aureus assessed as decreased in TNF-alpha level in peritoneal lavage at 10 mg/kg, ip administered 4 hrs after infection by ELISA; assay type: functional, organism-based
[33] = system: Neutrophil; test: Immunomodulatory activity in neutrophils (unknown origin) assessed as increase in CXCL1/KC level at 20 ug/ml measured after 12 hrs by ELISA; assay type: functional, cell-based; details: dose 20.0 µg/ml
[34] = Immunomodulatory activity in mouse peritoneal macrophage assessed as inhibition of LPS-induced IL-6 level at 5 ug/ml measured after 6 hrs by qRT-PCR analysis relative to control; assay type: functional
[35] = system: Mus musculus; test: Immunomodulatory activity in Kunming mouse infected with vancomycin-resistant Staphylococcus aureus assessed as decreased in IL-1beta level in peritoneal lavage at 10 mg/kg, ip administered 24 hrs before infection by ELISA; assay type: functional, organism-based
[36] = system: Staphylococcus aureus; test: In vivo antibacterial activity against vancomycin resistant Staphylococcus aureus infected in kunming mouse assessed as reduction in bacterial load in peritoneum at 10 mg/kg, iv measured 18 hrs after infection; assay type: functional, organism-based
[37] = system: Candida albicans; test: Antimicrobial activity against Candida albicans IS 08022821 incubated for 16 to 18 hrs by fluorescence microplate reader analysis; assay type: functional; details: time 16-18 hrs
[38] = system: Candida albicans; test: Antimicrobial activity against Candida albicans IS 08030401 incubated for 16 to 18 hrs by fluorescence microplate reader analysis; assay type: functional; details: time 16-18 hrs

Structure (SMILES): CC[C@H](C)[C@H](NC(=O)[C@@H]1CCCN1C(=O)[C@@H](NC(=O)[C@@H](NC(=O)CNC(=O)CNC(=O)[C@@H](NC(=O)[C@H](Cc1ccccc1)NC(=O)[C@@H](NC(=O)[C@H](CCCCN)NC(=O)[C@@H](NC(=O)[C@H](CCCCN)NC(=O)[C@H](CCCCN)NC(=O)[C@H](Cc1ccccc1)NC(=O)[C@@H](NC(=O)[C@H](CCCCN)NC(=O)[C@H](CCCNC(=N)N)NC(=O)[C@H](Cc1ccccc1)NC(=O)CNC(=O)[C@H](CCCCN)NC(=O)[C@H](CCCCN)NC(=O)[C@@H](NC(=O)[C@H](CCCCN)NC(=O)[C@H](CCCNC(=N)N)NC(=O)[C@H](Cc1ccccc1)NC(=O)[C@H](Cc1ccccc1)NC(=O)[C@H](CCCCN)NC(=O)[C@H](CCCCN)NC(=O)[C@H](Cc1ccccc1)NC(=O)[C@H](CCCNC(=N)N)NC(=O)[C@@H](N)CCCCN)[C@@H](C)CC)[C@@H](C)CC)[C@@H](C)O)[C@@H](C)CC)[C@@H](C)CC)[C@@H](C)O)[C@@H](C)CC)C(=O)O (H-KRFKKFFRKIKKGFRKIFKKTKIFIGGTIPI-OH)
- Activity [1]: Active
- MIC [2]: 1.17 µg/mL (≈ 0.308 µM)
- MIC [3]: 1.17 µg/mL (≈ 0.308 µM)
- MIC [4]: 1.17 µg/mL (≈ 0.308 µM)
- Activity [5]: Active
- inhibition [6]: Dose-dependent effect
- inhibition [7]: 85%
- inhibition [8]: Dose-dependent effect
- Activity [9]: 41.16%
- Activity [10]: Active
- Activity [11]: inactive
- MIC [12]: 25 µg/mL
- Activity [13]: Dose-dependent effect
- Activity [14]: Non-Toxic
- inhibition [15]: Active
- Activity [16]: Non-Toxic
- Activity [17]: Active
- MIC [18]: 1.17 µg/mL (≈ 0.308 µM)
- Activity [19]: Non-Toxic
- Activity [20]: Active
- MIC [21]: 1.17 µg/mL (≈ 0.308 µM)
- MIC [22]: 1.17 µg/mL (≈ 0.308 µM)
- inhibition [23]: 90%
- MIC [24]: 1.17 µg/mL (≈ 0.308 µM)
- Activity [25]: Dose-dependent effect
- MIC [26]: 1.17 µg/mL (≈ 0.308 µM)
- MIC [27]: 1.17 µg/mL (≈ 0.308 µM)
- Activity [28]: Tde
- Activity [29]: Dose-dependent effect
- MIC [30]: 1.17 µg/mL (≈ 0.308 µM)
- inhibition [31]: Dose-dependent effect
- Activity [32]: Active
- Activity [33]: Active
- inhibition at 5 µg/mL [34]: 99.6%
- Activity [35]: Active
- Activity [36]: Active
- MIC [37]: 1.17 µg/mL (≈ 0.308 µM)
- MIC [38]: 1.17 µg/mL (≈ 0.308 µM)
